This note sets out measurements from patent US20090170897A1, “Method of Treating Neuropathic Pain” (Pfizer, Inc., priority 2004, published 2009).

Data set [1] relates to Streptozocin (STZ)-induced diabetes neuropathy in the rat. Nature of the data set: STZ-induced dynamic allodynia (cotton bud, PWL). Format: in vivo. The procedure:
(§1) Male Sprague Dawley rats weighing 150-400 g obtained from Charles River (Manston, Kent, UK.) were housed in groups of 3. All animals were kept under a 12 h light/dark cycle (lights on at 07 h 00 min) with food and water ad libitum. All experiments were carried out by an observer blind to the treatments and in accordance with the Home Office Animals (Scientific Procedures) Act 1986.
Diabetes was induced by a single intraperitoneal injection of streptozotocin (50 mg/kg) freshly dissolved in 0.9% sterile saline. Streptozotocin injection induces a reproducible mechanical allodynia within 3 weeks, lasting for at least 7 weeks (Chen and Pan, (Chen S R and Pan H L. Hypersensitivity of Spinothalamic Tract Neurons Associated With Diabetic Neuropathic Pain in Rats. J Neurophysiol 87: 2726-2733, 2002).
Dynamic allodynia was assessed by lightly stroking the plantar surface of the hind paw with a cotton bud. To avoid recording general motor activity, care was taken to perform this procedure in fully habituated rats that were not active. At least two measurements were taken at each time point, the mean of which represented the paw withdrawal latency (PWL). […] A pain withdrawal response was often accompanied with repeated flinching or licking of the paw. Dynamic allodynia was considered to be present if animals responded to the cotton stimulus within 8 sec of commencing stroking (Field et al, 1999).
(§2) All the experiments were conducted blind. Static allodynia was expressed as median [LQ; UQ] and analysed by Mann Whitney U test. Dynamic allodynia and thermal hyperalgesia were expressed as arithmetic mean±SEM and analysed by ANOVA.

Data set [2] relates to Carrageenan-induced thermal hyperalgesia (CITH) in the rat. Description: Carrageenan-induced thermal hyperalgesia (CITH), rat plantar test. Format: in vivo. The following applies: 25 mg/kg PO. The procedure: as §1
Thermal hyperalgesia was assessed using the rat plantar test (Ugo Basile, Comerio, Italy), according to a method modified by Hargreaves et al. (1988). Briefly, rats were habituated to the apparatus that consisted of three individual Perspex boxes on a glass table. A mobile radiant heat source was located under the table and focused onto the desired paw. Paw withdrawal latencies (PWLs) were recorded three times for both hind paws of each animal, the mean of which represented baseline for left and right hind paws. The apparatus was calibrated to give a PWL of approximately 10 s in naïve rats. To prevent tissue damage of the plantar zone, a 22.5 sec cut-off was observed. Lambda carrageenan was injected intraplantarly (100 μl, 20 mg/ml) the right hind paw and baseline recordings of PWT were taken 2 hr post administration.
as §2

In data set [3] the target is T1, CRTH2 receptor (Rattus norvegicus, UniProt Q6XKD3).
T1 sequence (Q6XKD3 1-403): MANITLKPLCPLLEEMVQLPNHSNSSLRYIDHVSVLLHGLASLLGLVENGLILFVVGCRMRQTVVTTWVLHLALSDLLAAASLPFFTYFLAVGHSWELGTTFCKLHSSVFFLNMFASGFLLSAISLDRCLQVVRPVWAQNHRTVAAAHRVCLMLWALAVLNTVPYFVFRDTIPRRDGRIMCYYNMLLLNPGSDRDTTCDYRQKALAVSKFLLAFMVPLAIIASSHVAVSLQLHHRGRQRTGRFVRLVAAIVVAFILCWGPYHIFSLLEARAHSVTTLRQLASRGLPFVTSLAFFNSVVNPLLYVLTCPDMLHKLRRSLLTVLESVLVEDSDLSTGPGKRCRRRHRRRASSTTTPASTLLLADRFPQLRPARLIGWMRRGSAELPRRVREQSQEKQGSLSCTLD
Nature of the data set: IC50 at rat CRTH2 receptor (rIC50).

Data set [4] has as its target T2, CRTH2 receptor (Homo sapiens, UniProt Q9Y5Y4).
T2 construct: Flag peptide (behind a 'prolac' signal peptide) (N); expressed in transfected cells
T2 sequence (Q9Y5Y4 1-395): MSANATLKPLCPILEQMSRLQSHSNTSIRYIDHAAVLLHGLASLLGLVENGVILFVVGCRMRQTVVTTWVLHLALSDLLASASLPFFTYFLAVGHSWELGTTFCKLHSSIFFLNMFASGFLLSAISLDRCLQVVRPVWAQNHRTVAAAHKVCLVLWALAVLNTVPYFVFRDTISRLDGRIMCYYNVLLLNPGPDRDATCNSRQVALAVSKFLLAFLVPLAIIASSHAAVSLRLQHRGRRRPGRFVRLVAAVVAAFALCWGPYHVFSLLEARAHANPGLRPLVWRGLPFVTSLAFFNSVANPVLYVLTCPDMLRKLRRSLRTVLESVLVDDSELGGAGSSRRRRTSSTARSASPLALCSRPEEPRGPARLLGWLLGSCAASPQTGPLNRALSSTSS
Description: competition binding of 3H-PGD2 at CRTH2 and DP receptors (selectivity). The following applies: competition with 3H-PGD2 binding, IC50 at both receptors. The method, then:
A CRTH2 receptor ligand or antagonist, can be tested for selectivity for the CRTH2 receptor in comparison with DP. In the assay, the capacity of each test compound to compete with binding of ^3H-PGD2 is measured at both the CRTH2 and DP receptors, and an IC50 value (in μM) is determined. Controls can be set up using cold PGD2 to compete with ^3H-PGD2. Any of the above mentioned binding assay procedures can be used. Selectivity of CRTH2 receptor antagonists should be at least 10 fold compared to other GPCRs especially the D type of prostanoid receptor or DP receptor (N-cyclopropyl-N-[2-methyl-1-(pyridine-3-carbonyl)-1,2,3,4-tetrahydro-quinolin-4-yl]-acetamide is >50 fold selective), preferably it should be at least 100 fold selective and even more preferably at least 1000 fold selective, alternatively the antagonist should be selective for CRTH2 receptor over any of the receptors C3a, C5a, FMLP, LTB4, GPCR0269, GPCR0232 or GPCR0288.

Data set [5] is described as follows: compound level in rat CSF after oral administration. Type of data set: in vivo. The method, then:
Moreover the antagonist produced a long lasting anti-hyperalgesic effect in the CITH rat model. N-cyclopropyl-N-[2-methyl-1-(pyridine-3-carbonyl)-1,2,3,4-tetrahydro-quinolin-4-yl]-acetamide was dosed in the rat blood and CSF at various time points after oral administration.

As to `CC(=O)N(C1CC1)C1CC(C)N(C(=O)c2cccnc2)c2ccccc21` (centres unmarked) [N-cyclopropyl-N-[2-methyl-1-(pyridine-3-carbonyl)-1,2,3,4-tetrahydro-quinolin-4-yl]-acetamide], the “duration of biologically relevant effect, STZ dynamic allodynia” value in data set [1] (25 mg/kg PO) is given as “up to 2 hr”. The “time of peak effect, STZ dynamic allodynia” value in data set [1] (25 mg/kg PO, post compound dose) was determined as 1 h. Moreover, the “effect on maintenance of STZ-induced dynamic allodynia” value in data set [1] (compound 25 mg/kg PO, gabapentin 100 mg/kg PO (positive control)) was “reversed”. Moreover, in data set [2], the “effect in the contralateral paw” value is on record as “no effect” and the “effect on maintenance of thermal hyperalgesia (ipsilateral paw)” value is “completely reversed”. The “paw withdrawal latency at peak effect (mean±SEM)” value in data set [2] (2 h post administration, ipsilateral paw, vehicle 3.9±0.2) was 10.1±0.6. Also, the “time of peak effect, thermal hyperalgesia” value in data set [2] (post administration) amounted to 2 h. In addition, the “duration of anti-hyperalgesic effect” value in data set [2] (post compound administration) amounted to 5 h. The IC50 (as a rule, the midpoint of a concentration-inhibition curve) against CRTH2 receptor [3] stood at 45 nM. The “selectivity for CRTH2 receptor compared to DP receptor” value on CRTH2 receptor [4] is over 50 fold. Also, the “blood brain barrier penetration” value in data set [5] was “appears to cross the blood brain barrier”.
